Assay results taken from patent US7183068B2, “Methods of manufacturing glucose measuring assemblies with hydrogels” (Animas Technologies, LLC, priority 1999, dated 2007).
Values joined by “and” are separate entries in the source; they are usually repeats but may differ in a detail not shown here. Equal values may be shown once.

What was measured:
[1] = Adsorption of Nipastat paraben components from hydrogel by gel retaining layer, HPLC of gel extract; type: physicochemical; conditions: 9 Days at 4° C.; for % Loss of Nipastat ® biocide from Gel: Gel + GRL versus Gel Control; for HPLC peak intensity of paraben extracted from hydrogel, Average: average of 5; for HPLC peak intensity of paraben extracted from hydrogel: individual samples 1-5
Description: (§1) Nipastat®-containing hydrogels were formulated with the appropriate buffer salts under standard conditions, from which samples were taken for analysis. […] The hydrogels were cut using a ¾ inch punch to generate the sample disks to assay. Each disk was added to 5 mL of acetonitrile/water (30% ACN, v/v) and the Nipastat® biocide was extracted for 1 hour while shaking on an orbital shaker at 100 rpm. The extract was then filtered through a 0.2 μm membrane prior to HPLC separation and UV detection at 254 nm.
(§2) Reverse phase HPLC chromatography was performed using a Waters 3.9 mm×15 cm Nova-Pak C-18 column (Milford, Mass.) operating at a flow rate of between about 1.0 to 2.0 mL/min. at 35° C. The eluent was monitored by UV at 254 nm using a Shimadzu SPD-10AU UV-Visible spectrometer (Kyoto, Japan). Samples 10 μL in volume were injected into the column equilibrated in 30% ACN in water, and the following 20-minute gradient program was performed: • 1. Initial time of injection: 30% ACN/70% water at a flow rate of 1 mL/min • 2. Linear Gradient from 30% ACN to 80% ACN for 9.0 minutes (1 mL/min) • 3. Linear Gradient from 80% ACN to 100% ACN for 0.5 minutes (1 mL/min) • 4. 100% ACN for 4.5 minutes (1 mL/min) • 5. Linear Gradient from 100% ACN to 30% ACN for 0.5 minutes at a flow rate of 2 mL/min • 6.30% ACN for 5.5 minutes at a flow rate of 1 mL/min
(§3) The HPLC profiles of the extracts were compared with that of a standard solution of known concentration comprising the p-hydroxybenzoate derivatives. The peak intensities of the experimental samples are compared to those of the standards to determine relative amounts of each extracted paraben.
(§4) Collection assemblies incorporating Nipastat® biocide-comprising hydrogels were assayed for retention of the biocide within the hydrogel. Samples of the hydrogel prior to and after incorporation into the collection assembly, as well as the components of the collection assembly in contact with the hydrogel, were prepared as described in Example 1.

[2] = Adsorption of Nipastat paraben components from hydrogel by mask layer, HPLC of gel extract; type: physicochemical; conditions: 48 Hours at 4° C.; for % Loss of Nipastat ® biocide from Gel: Gel + Mask versus Gel Control; for HPLC peak intensity of paraben extracted from hydrogel, Average: average of 5; for HPLC peak intensity of paraben extracted from hydrogel: individual samples 1-5
Description: as §1, §2, §3, §4

[3] = Adsorption of undecylenic acid from hydrogel into gel retaining layer, GC; type: physicochemical; conditions: Two Weeks at Room Temperature
Description: (§5) Collection assemblies incorporating sodium undecylenate-comprising hydrogels were assayed for retention of the biocide within the hydrogel. The presence of undecylenic acid in the hydrogel and assembly components was determined by gas chromatography (GC) using a Hewlett Packard (Avondale, Pa.) 5890 gas chromatogram equipped with an HP 3396A integrator. The hydrogels and collection assembly components were cut using a ¾ inch punch to generate the samples to assay. Each sample “disk” was added to 4 mL of 1M HCl, and the undecylenic acid was extracted for 2 hours while shaking on an orbital shaker at 150 rpm, followed by 10 minutes at 100 rpm. The sample disks were then extracted twice with 4 mL of ethyl acetate. Samples 1 μL in volume were injected into the GC and the results compared to that generated for a standard solution of undecylenic acid.

[4] = Response of sensing electrode to glucose, acetaminophen and uric acid in presence of biocide (percent recovery); conditions: preconditioned 10 minutes at 0.77V, 50 minutes at 0.42V
Description: Two biocides were compared with respect to the effects their presence (within the ionically conductive medium) had on signal generation at the sensing element under three conditions: in the presence of glucose, glucose plus acetaminophen, and glucose plus uric acid. The Nipastat® biocide was shown in the examples above to form a permeation selective barrier at the reactive face of the sensor element. The second biocide tested, undecylenic acid, was not expected to polymerize under the iontophoretic conditions used during the functionality test as described in the previous example. The measured responses of the sensor elements are presented in Table 7, normalized to a control “background” response for each sensor element. As described in Example 5, the sensor electrodes were assembled with the collection insert layer containing the appropriate ionically conductive material (control, Nipastat® biocide, or undecylenic acid biocide) to form the autosensor assemblies. The autosensor assemblies were preconditioned for 10 minutes at 0.77V, followed by 50 minutes at 0.42V, after which the glucose solution (200 μM) plus or minus the interferant species was deposited onto the ionically conductive material, and the response of the sensor element measured from this time forward.

[5] = Loss of undecylenic acid from hydrogel, gel control, GC; type: physicochemical; conditions: Two Weeks at Room Temperature
Description: as §5

[6] = Adsorption of undecylenic acid from hydrogel into mask layer, GC; type: physicochemical; conditions: Two Weeks at Room Temperature
Description: as §5

Staphylococcus aureus = test: Modified USP antimicrobial preservative effectiveness test of hydrogels; type: cell-based; conditions: Staphylococcus aureus inoculation, 28 day period
Description: (§6) Nipastat® biocide and undecylenic acid were compared with respect to the effects their presence (within the ionically conductive medium) had on microbial growth over time. A modified USP antimicrobial preservative effectiveness test was performed, using Aspergillus niger, Candida albicans, Eschericia coli, Pseudomonas aeruginosa and Staphylococcus aureus. Separate portions of the two hydrogels were inoculated with a low concentration of one of the listed microorganisms, and recovery of the microorganism was determined over a period of 28 days. For this assay, the microorganisms were cultured, harvested and diluted to yield working suspensions of 2.0×10^3 to 2.0×10^4 colony forming units (CFUs)/sample.

Pseudomonas aeruginosa = test: as above; type: cell-based; conditions: Pseudomonas aeruginosa inoculation, 28 day period
Description: as §6

Aspergillus niger = test: as above; type: cell-based; conditions: Aspergillus niger inoculation, 28 day period
Description: as §6

Candida albicans = test: as above; type: cell-based; conditions: Candida albicans inoculation, 28 day period
Description: as §6

Eschericia coli = test: as above; type: cell-based; conditions: Eschericia coli inoculation, 28 day period
Description: as §6

Row | Compound | % Loss of Nipastat ® biocide from Gel [1] [%] | HPLC peak intensity of paraben extracted from hydrogel, Average ([1]; Gel + GRL) | HPLC peak intensity of paraben extracted from hydrogel ([1]; Gel + GRL) | HPLC peak intensity of paraben extracted from hydrogel, Average ([1]; Gel Control) | HPLC peak intensity of paraben extracted from hydrogel ([1]; Gel Control) | % Loss of Nipastat ® biocide from Gel [2] [%] | HPLC peak intensity of paraben extracted from hydrogel, Average ([2]; Gel + Mask) | HPLC peak intensity of paraben extracted from hydrogel ([2]; Gel + Mask) | HPLC peak intensity of paraben extracted from hydrogel, Average ([2]; Gel Control) | HPLC peak intensity of paraben extracted from hydrogel ([2]; Gel Control) | other results
1 | CCCOC(=O)c1ccc(O)cc1 [Propyl, p-hydroxybenzoic acid propyl ester] | 58.5 | 10873 | 4958 and 11465 and 9664 and 15618 | 26218 | 24034 and 30121 and 30407 and 24349 and 22180 | 99.8 | 50 | 0 (4×) and 252 | 24535 | 18744 and 22146 and 27621 and 25936 and 28226 | 
2 | C=CCCCCCCCCC(=O)O [undecylenic acid, 10-undecenoic acid] |  |  |  |  |  |  |  |  |  |  | % Loss for Gel + GRL, Average ([3]; average): 28.1%; % Loss for Gel + GRL ([3]; individual hydrogel samples): 37.0% and 28.4% and 22.2% and 24.7%; formation of a permeation selective barrier impeding acetominophen and uric acid signal generation [4]: does not; % Loss for Gel Control, Average ([5]; average): 62.4%; % Loss for Gel Control ([5]; individual hydrogel samples): 64.9% and 68.1% and 75.2% and 76.2% and 37.2% and 52.8%; % Loss for Gel + Mask Layer, Average ([6]; average): 73.1%; % Loss for Gel + Mask Layer ([6]; individual hydrogel samples): 73.3% and 68.5% and 78.2% and 72.5%; biocide activity within the hydrogel: microbial count (Staphylococcus aureus): effective at reducing the microbial count; effectiveness compared between the two biocides (Staphylococcus aureus): more effective than the Nipastat® biocide; biocide activity within the hydrogel: microbial count (Pseudomonas aeruginosa): effective at reducing the microbial count; effectiveness compared between the two biocides (Pseudomonas aeruginosa): more effective than the Nipastat® biocide; biocide activity within the hydrogel: microbial count (Aspergillus niger): effective at reducing the microbial count; effectiveness compared between the two biocides (Aspergillus niger): more effective than the Nipastat® biocide; biocide activity within the hydrogel: microbial count (Candida albicans): effective at reducing the microbial count; effectiveness compared between the two biocides (Candida albicans): equally effective; biocide activity within the hydrogel: microbial count (Eschericia coli): effective at reducing the microbial count; effectiveness compared between the two biocides (Eschericia coli): equally effective
3 | p-hydroxybenzoic acid butyl esters |  |  |  |  |  | 99.9 | 87 | 0 (4×) and 436 |  | 50220 | 
4 | COC(=O)c1ccc(O)cc1 [Methyl, p-hydroxybenzoic acid methyl ester] | 17.0 | 231960 | 147682 and 239356 and 231307 and 251620 and 289836 | 279309 | 261836 and 315315 and 313086 and 256304 and 250006 | 96.1 | 10075 | 5445 and 11776 and 13807 and 11268 and 8081 | 257019 | 199735 and 233495 and 282756 and 265561 and 303549 | 
5 | CCOC(=O)c1ccc(O)cc1 [Ethyl, p-hydroxybenzoic acid ethyl ester] | 34.2 | 40848 | 23429 and 43116 and 38410 and 46214 and 53073 | 62118 | 58534 and 68190 and 70588 and 56529 and 56747 | 99.9 | 57 | 0 (4×) and 285 | 63573 | 43754 and 52495 and 93771 and 58684 and 69162 | 
